Measurements as given in US20240158446A1, “CYCLIC COMPOUND HAVING SELECTIVE INHIBITORY ACTION ON KRAS OVER HRAS AND NRAS” (CHUGAI SEIYAKU KABUSHIKI KAISHA, priority 2021, published 2024).
Like-named read-outs stand apart in the source and are kept apart here.

Columns and labels:
[1] = molecular target: GDP-bound KRAS wild-type protein (Homo sapiens, UniProt P01116); test: Binding to KRAS by surface plasmon resonance (SPR), Single Cycle Kinetics; conditions: SPR, Single Cycle Kinetics, GDP-bound KRAS wild-type protein, read-out: KRAS KD
[2] = molecular target: GDP-bound NRAS wild-type protein (Homo sapiens, UniProt P01111); test: Binding to NRAS by surface plasmon resonance (SPR), Single Cycle Kinetics; conditions: SPR; for NRAS/KRAS (ratio of KD value for NRAS to KD value for KRAS): GDP-bound NRAS wild-type protein vs GDP-bound KRAS wild-type protein, KD ratio class; for NRAS/KRAS (KD ratio): ratio of KD for GDP-bound NRAS wild-type protein to KD for KRAS
[3] = molecular target: GDP-bound HRAS wild-type protein (Homo sapiens, UniProt P01112); test: Binding to HRAS by surface plasmon resonance (SPR), Single Cycle Kinetics; conditions: SPR; for HRAS/KRAS (ratio of KD value for HRAS to KD value for KRAS): GDP-bound HRAS wild-type protein vs GDP-bound KRAS wild-type protein, KD ratio class; for HRAS/KRAS (KD ratio): ratio of KD for GDP-bound HRAS wild-type protein to KD for KRAS
[4] = system: human lung cancer strain NCI-H441;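 note: cell proliferation inhibition after four days measured by CellTiter-Glo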
[5] = read-out: NCI-H441 IC50, NCI-H441 cell proliferation, 4 days, CellTiter-Glo

Sequence of GDP-bound HRAS wild-type protein (P01112 whole entry): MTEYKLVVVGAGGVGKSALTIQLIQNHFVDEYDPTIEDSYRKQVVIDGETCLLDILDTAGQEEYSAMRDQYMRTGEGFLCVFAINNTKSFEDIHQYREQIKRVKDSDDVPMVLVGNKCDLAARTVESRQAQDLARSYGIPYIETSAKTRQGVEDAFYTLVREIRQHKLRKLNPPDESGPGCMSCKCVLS
Sequence of GDP-bound NRAS wild-type protein (P01111 whole entry): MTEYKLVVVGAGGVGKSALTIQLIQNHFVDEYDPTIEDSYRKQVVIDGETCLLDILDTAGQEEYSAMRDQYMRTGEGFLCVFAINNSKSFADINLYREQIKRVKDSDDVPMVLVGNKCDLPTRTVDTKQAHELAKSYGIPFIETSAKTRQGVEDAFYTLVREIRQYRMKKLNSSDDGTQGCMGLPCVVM
Sequence of GDP-bound KRAS wild-type protein (P01116 whole entry): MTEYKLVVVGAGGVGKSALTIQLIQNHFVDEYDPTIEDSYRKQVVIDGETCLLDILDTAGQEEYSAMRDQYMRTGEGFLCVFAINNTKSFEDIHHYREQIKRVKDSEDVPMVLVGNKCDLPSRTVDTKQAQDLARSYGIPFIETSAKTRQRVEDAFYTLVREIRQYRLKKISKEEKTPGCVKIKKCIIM

Structure (SMILES) | Kd ([1]; 1:1 binding model) [nM] | IC50 [4] [nM] | Kd [1] [nM] | IC50 [4, 5] [nM] | NRAS/KRAS (ratio of KD value for NRAS to KD value for KRAS) [2] | HRAS/KRAS (ratio of KD value for HRAS to KD value for KRAS) [3] | NRAS/KRAS (KD ratio) [2] | HRAS/KRAS (KD ratio) [3]
CC[C@H](C)[C@@H]1NC(=O)[C@H](CC(C)C)N(C)C(=O)C[C@@H](C(=O)N(C)C)N(C)C(=O)[C@H](C2CCCC2)N(C)C(=O)C2(CC(C)(C)C2)NC(=O)[C@@H]2C[C@@H](F)CN2C(=O)[C@H](CCc2cc(F)c(C(F)(F)F)c(F)c2)NC(=O)CN(C)C(=O)[C@H](Cc2ccc(C(F)(F)F)cc2)N2CC/C=C\C[C@@H](C2=O)N(C)C(=O)CN(C)C1=O [PP1566] | 0.026 | 2.3 | – | – | A (a compound having 10 or more and less than 20 is denoted as A) | A (a compound having 10 or more and less than 20 is denoted as A) | – | –
CCCC[C@H]1C(=O)N[C@@H]([C@@H](C)CC)C(=O)N(C)CC(=O)N(C)[C@H]2C/C=C\CCN(C2=O)[C@@H](Cc2ccc(C(F)(F)F)cc2)C(=O)N(C)CC(=O)N[C@@H](CCc2cc(F)c(C(F)(F)F)c(F)c2)C(=O)N2C[C@H](OCC)C[C@H]2C(=O)NC2(CC(F)(F)C2)C(=O)N(C)[C@@H](C2CCCC2)C(=O)N(C)[C@H](C(=O)N(C)C)CC(=O)N1C [PP1740] | – | – | 0.053 | 3.6 | – | – | A (a compound having 10 or more and less than 20 is denoted as A) | A (a compound having 10 or more and less than 20 is denoted as A)
CC[C@H](C)[C@@H]1NC(=O)[C@H](CC(C)C)N(C)C(=O)C[C@@H](C(=O)N(C)C)N(C)C(=O)[C@H](C2CCCC2)N(C)C(=O)C2(CCC2)N(C)C(=O)[C@@H]2CCCN2C(=O)[C@H](CCc2cc(F)c(C(F)(F)F)c(F)c2)NC(=O)CN(C)C(=O)[C@H](Cc2ccc(C)cc2)N2CC/C=C\C[C@@H](C2=O)N(C)C(=O)CN(C)C1=O [PP1791] | – | – | 0.042 | 3.7 | – | – | A (a compound having 10 or more and less than 20 is denoted as A) | A (a compound having 10 or more and less than 20 is denoted as A)

More lines, main results first:

Kd ([1]; 1:1 binding model) [nM] | IC50 [4] [nM] | Kd [1] [nM] | IC50 [4, 5] [nM] | Structure (SMILES) | NRAS/KRAS (ratio of KD value for NRAS to KD value for KRAS) [2] | HRAS/KRAS (ratio of KD value for HRAS to KD value for KRAS) [3] | NRAS/KRAS (KD ratio) [2] | HRAS/KRAS (KD ratio) [3]
0.17 | 9.7 | – | – | CCO[C@@H]1C[C@H]2C(=O)NC3(CC(C)(C)C3)C(=O)N(C)[C@@H](C3CCCC3)C(=O)N(C)[C@H](C(=O)N(CC)CC)CC(=O)N(C)[C@@H](CC)C(=O)N[C@@H]([C@@H](C)CC)C(=O)N(C)CC(=O)N(C)[C@H]3C/C=C\CCN(C3=O)[C@@H](Cc3ccc(C(F)(F)F)cc3)C(=O)N(C)CC(=O)N[C@@H](CCc3cc(F)c(C(F)(F)F)c(F)c3)C(=O)N2C1 [PP1580] | A (a compound having 10 or more and less than 20 is denoted as A) | A (a compound having 10 or more and less than 20 is denoted as A) | – | –
0.6 | 24.2 | – | – | CCO[C@@H]1C[C@H]2C(=O)NC3(CC(C)(C)C3)C(=O)N(C)[C@@H](C3CCCC3)C(=O)N(C)[C@H](C(C)C)CC(=O)N(C)[C@@H](CC)C(=O)N[C@@H]([C@@H](C)CC)C(=O)N(C)CC(=O)N(C)[C@H]3C/C=C\CCN(C3=O)[C@@H](Cc3ccc(C(F)(F)F)cc3)C(=O)N(C)CC(=O)N[C@@H](CCc3cc(F)c(C(F)(F)F)c(F)c3)C(=O)N2C1 [PP1588] | B (a compound having 3 or more and less than 10 is denoted as B) | B (a compound having 3 or more and less than 10 is denoted as B) | – | –
